Results published in patent publication US8906929B2, “Inhibitors of human immunodeficiency virus replication” (priority 2012, dated 2014).

Test system: recombinant NL-Rluc virus
Test: Inhibition of HIV replication (NL-RLuc virus in MT-2 cells, luciferase readout)
Format: cell-based
Settings: 5 days of incubation, 10% FBS
[1] = Human immunodeficiency virus 1, MT2, 120 h

Structure (SMILES) | EC50 [nM] | EC50 [1] [nM]
Cc1nc2cc3nn2c(c1[C@H](OC(C)(C)C)C(=O)O)-c1ccc2c(c1)C(CCCCCc1ccccc1-c1cccc-3c1)CCO2 (single isomer, unassigned) [Example 8] | 51 | –
Cc1nc2cc3nn2c(c1[C@H](OC(C)(C)C)C(=O)O)-c1ccc2c(c1)C(CCCCCc1ccccc1-c1cccc-3c1)CCO2 (single isomer, unassigned) [Example 9] | 3680 | –
Cc1nc2cc3nn2c(c1[C@H](OC(C)(C)C)C(=O)O)-c1ccc2c(c1)C(CCCCc1ccccc1-c1cccc-3c1)CCO2 (single isomer, unassigned) [Example 10] | 237 | –
Cc1nc2cc3nn2c(c1[C@H](OC(C)(C)C)C(=O)O)-c1ccc2c(c1)C(CCCCc1ccccc1-c1cccc-3c1)CCO2 (single isomer, unassigned) [Example 11] | 1270 | –
Cc1nc2cc3nn2c(c1[C@H](OC(C)(C)C)C(=O)O)-c1ccc2c(c1)[C@H](CCCCOc1ccccc1-c1cccc-3c1)CCO2 (single isomer, unassigned) [Example 12] | – | 7
Cc1nc2cc3nn2c(c1[C@H](OC(C)(C)C)C(=O)O)-c1ccc2c(c1)[C@@H](CCCCOc1ccccc1-c1cccc-3c1)CCO2 (single isomer, unassigned) [Example 13] | – | 216
Cc1nc2cc3nn2c(c1[C@H](OC(C)(C)C)C(=O)O)-c1ccc2c(c1)[C@@H](CC=CCOc1ccccc1-c1cccc-3c1)CCO2 (single isomer, unassigned) [Example 14] | – | 383
Cc1nc2cc3nn2c(c1[C@H](OC(C)(C)C)C(=O)O)-c1ccc2c(c1)[C@H](CC=CCOc1ccccc1-c1cccc-3c1)CCO2 (single isomer, unassigned) [Example 15] | – | 4
Cc1nc2cc3nn2c(c1[C@H](OC(C)(C)C)C(=O)O)N1CCC(C)(CC1)OCC=C[C@@H](C)Oc1ccccc1-c1cccc-3c1 (single isomer, unassigned) [Example 22] | – | 36
Cc1ccc2c(c1)-c1cccc(c1)-c1cc3nc(C)c([C@H](OC(C)(C)C)C(=O)O)c(n3n1)N1CCC(C)(CC1)OCCCC(C)C(C)O2 (single isomer, unassigned) [Example 92] | 968 | –
Cc1ccc2c(c1)-c1cccc(c1)-c1cc3nc(C)c([C@H](OC(C)(C)C)C(=O)O)c(n3n1)N1CCC(C)(CC1)OCCCC(C)C(C)O2 (single isomer, unassigned) [Example 93] | 95 | –
Cc1ccc2c(c1)-c1cccc(c1)-c1cc3nc(C)c([C@H](OC(C)(C)C)C(=O)O)c(n3n1)N1CCC(C)(CC1)OCCCC(C)C(C)O2 (single isomer, unassigned) [Example 94] | 35 | –
Cc1ccc2c(c1)-c1cccc(c1)-c1cc3nc(C)c([C@H](OC(C)(C)C)C(=O)O)c(n3n1)N1CCC(C)(CC1)OCCCC(C)C(C)O2 (single isomer, unassigned) [Example 95] | 36 | –
Cc1ccc2c(c1)-c1cccc(c1)-c1cc3nc(C)c([C@H](OC(C)(C)C)C(=O)O)c(n3n1)N1CCC(C)(CC1)OCCCC(C)CO2 (single isomer, unassigned) [Example 103] | – | 25
Cc1ccc2c(c1)-c1cccc(c1)-c1cc3nc(C)c([C@H](OC(C)(C)C)C(=O)O)c(n3n1)N1CCC(C)(CC1)OCCCC(C)CO2 (single isomer, unassigned) [Example 104] | 26 | –
Cc1nc2cc3nn2c(c1[C@H](OC(C)(C)C)C(=O)O)-c1ccc2c(c1Cl)N(C/C=C\CCc1cccc(c1)-c1cccc-3c1)CCO2 [Example 1, (2S)-2-(tert-Butoxy)-2-[(22Z)-32-chloro-4-methyl-28-oxa-5,7,8,25-tetraazaheptacyclo[23.6.2.1^6,^9.1^10,^14.1^15,^19.0^2,^7.0^29,^33]hexatriaconta-1(31),2,4,6(36),8,10(35), 11,13,15(34), 16,18,22,29,32-tetradecaen-3-yl]acetic acid] | – | 853
Cc1nc2cc3nn2c(c1[C@H](OC(C)(C)C)C(=O)O)-c1ccc2c(c1Cl)N(C/C=C/CCc1cccc(c1)-c1cccc-3c1)CCO2 [Example 2, (2S)-2-(tert-Butoxy)-2-[(22E)-32-chloro-4-methyl-28-oxa-5,7,8,25-tetraazaheptacyclo[23.6.2.1^6,^9.1^10,^14.1^15,^19.0^2,^7.0^29,^33]hexatriaconta-1 (31), 2,4,6(36),8,10(35), 11, 13, 15(34), 16,18,22,29,32-tetradecaen-3-yl]acetic acid] | – | 722
Cc1nc2cc3nn2c(c1[C@H](OC(C)(C)C)C(=O)O)-c1ccc2c(c1Cl)N(CCCCOc1cccc(c1)-c1cccc-3c1)CCO2 [Example 3, (2S)-2-(tert-Butoxy)-2-{32-chloro-4-methyl-20,28-dioxa-5,7,8,25-tetraazaheptacyclo[23.6.2.1^6,^9.1^10,^14.1^15,^19.0^2,^7.0^29,^33]hexatriaconta-1(31), 2,4, 6(36), 8, 10(35), 11, 13, 15 (34), 16,18,29,32-tridecaen-3-yl}acetic acid] | – | 418
Cc1nc2cc3nn2c(c1[C@H](OC(C)(C)C)C(=O)O)-c1ccc2c(c1Cl)N(CC=CCCc1ccccc1-c1cccc-3c1)CCO2 [Example 4] | – | 125
Cc1nc2cc3nn2c(c1[C@H](OC(C)(C)C)C(=O)O)-c1ccc2c(c1Cl)N(CCCCCCOc1ccccc1-c1cccc-3c1)CCO2 [Example 5, (2S)-2-(tert-Butoxy)-2-{35-chloro-4-methyl-21,31-dioxa-5,7,8,28-tetraazaheptacyclo[26.6.2.1^6,^9.1^10,^14.0^2,^7.0^15,^200^32,36]octatriaconta-1(34),2,4,6(38),8,10(37), 11, 13, 15 (20), 16,18,32,35-tridecaen-3-yl}acetic acid] | – | 30
Cc1nc2cc3nn2c(c1[C@H](OC(C)(C)C)C(=O)O)-c1cc2c(cc1F)OCCN2CCCCCc1ccccc1-c1cccc-3c1 [Example 6, (2S)-2-(tert-Butoxy)-2-{32-fluoro-4-methyl-29-oxa-5,7,8,26-tetraazaheptacyclo[24.6.2.1^6,^9.1^10,^14.0^2,^7.0^15,^20.0^30,^34]hexatriaconta-1(32),2,4,6(36),8,10(35), 11, 13, 15(20), 16,18,30,33-tridecaen-3-yl}acetic acid] | – | 54
Cc1cc2c3cc1-c1c([C@H](OC(C)(C)C)C(=O)O)c(C)nc4cc(nn14)-c1cccc(c1)-c1ccccc1CCCCCN3CCO2 [Example 7, (2S)-2-(tert-Butoxy)-2-{4,32-dimethyl-29-oxa-5,7,8,26-tetraazaheptacyclo[24.6.2.1^6,^9.1^10,^14.0^2,^7.0^15,^200^30,^34]hexatriaconta-1(32), 2,4,6(36),8,10(35), 11, 13, 15(20), 16,18,30,33-tridecaen-3-yl}acetic acid] | – | 3510
Cc1nc2cc3nn2c(c1[C@H](OC(C)(C)C)C(=O)O)-c1cc(F)c2c(c1)N(CCCCCc1ccccc1-c1cccc-3c1)CCO2 [Example 16, (2S)-2-(tert-Butoxy)-2-{31-fluoro-4-methyl-29-oxa-5,7,8,26-tetraazaheptacyclo[24.6.2.1^6,^9.1^10,^14.0^2,^7.0^15,^20.0^30,^34]hexatriaconta-1(32),2,4,6(36),8,10(35), 11, 13, 15(20),16,18,30,33-tridecaen-3-yl}acetic acid] | – | 177
Cc1nc2cc3nn2c(c1[C@H](OC(C)(C)C)C(=O)O)-c1ccc2c(c1Cl)N(CCCCCc1ccccc1-c1cccc-3c1)CCO2 [Example 17, (2S)-2-(tert-Butoxy)-2-{33-chloro-4-methyl-29-oxa-5,7,8,26-tetraazaheptacyclo[24.6.2.1^6,^9.1^10,^14.0^2,^7.0^15,^20.0^30,^34]hexatriaconta-1(32),2,4,6(36),8,10(35), 11,13,15(20),16,18,30,33-tridecaen-3-yl}acetic acid] | – | 145
Cc1nc2cc3nn2c(c1[C@H](OC(C)(C)C)C(=O)O)N1CCC(C)(CC1)OCC=CCCc1ccccc1-c1cccc-3c1 [Example 18, (2S)-2-(tert-Butoxy)-2-[4,27-dimethyl-26-oxa-1,5,7,8-tetraazahexacyclo[25.2.2.1^6,^9.1^10,^14.0^2,^7.0^15,^20]tritriaconta-2,4,6(33),8,10(32),11,13,15(20),16,18,23-undecaen-3-yl]acetic acid] | – | 16
Cc1nc2cc3nn2c(c1[C@H](OC(C)(C)C)C(=O)O)N1CCC(C)(CC1)OCCCCCc1ccccc1-c1cccc-3c1 [Example 19, (2S)-2-(tert-Butoxy)-2-{4,27-dimethyl-26-oxa-1,5,7,8-tetraazahexacyclo[25.2.2.1^6,^9.1^10,^14. 0^2,^7. 0^15,^20]-tritriaconta-2,4,6(33),8,10(32),11,13,15(20),16,18-decaen-3-yl}acetic acid] | – | 21
Cc1nc2cc3nn2c(c1[C@H](OC(C)(C)C)C(=O)O)N1CCC(C)(CC1)OC/C=C/COc1ccccc1-c1cccc-3c1 [Example 20, (2S)-2-(tert-Butoxy)-2-[(23E)-4,27-dimethyl-21,26-dioxa-1,5,7,8-tetraazahexacyclo[25.2.2.1^6,^9.1^10,^14.0^2,^7.0^15,^20]tritriaconta-2,4,6(33),8,10(32),11,13,15(20),16,18,23-undecaen-3-yl]acetic acid] | – | 5
Cc1nc2cc3nn2c(c1[C@H](OC(C)(C)C)C(=O)O)N1CCC(C)(CC1)OCCCCOc1ccccc1-c1cccc-3c1 [Example 21, (2S)-2-(tert-Butoxy)-2-{4,27-dimethyl-21,26-dioxa-1,5,7,8-tetraazahexacyclo[25.2.2.1^6,^9.1^10,^14.0^2,^7.0^15,^20]-tritriaconta-2,4, 6(33), 8, 10(32), 11, 13, 15(20),16,18-decaen-3-yl}acetic acid] | – | 7
Cc1nc2cc3nn2c(c1[C@H](OC(C)(C)C)C(=O)O)N1CCC(C)(CC1)OCC=C[C@H](C)Oc1ccccc1-c1cccc-3c1 [Example 23, (2S)-2-(tert-Butoxy)-2-[(22S)-4,22,27-trimethyl-21,26-dioxa-1,5,7,8-tetraazahexacyclo[25.2.2.1^6,^9.1^10,^14.0^2,^7.0^15,^20]tritriaconta-2,4,6(33),8,10(32),11,13,15(20),16,18,23-undecaen-3-yl]acetic acid] | – | 11
